According to US12130255B2, “High-throughput label-free enzymatic bioassays using DESI-MS” (priority 2020, dated 2024):

Legend:
[1] = target: T1, acetylcholinesterase (AChE) (Homo sapiens, UniProt P22303); assay: DESI-MS label-free acetylcholinesterase inhibition assay, dose-response curves; type: biochemical
[2] = target: T1, acetylcholinesterase (AChE); assay: DESI-MS AChE inhibition, Dixon plot (inhibitor and substrate concentrations varied); type: biochemical
Description: For kinetic determinations the reactions were incubated for 50 minutes, with the concentration of substrate held kept between 0.4 to 1 mM, while the concentration of enzyme was set to 180 ng/mL. Note that only concentrations within the calibration range were used. The calibrated result (inset) is used to determine v0 of the reaction. The data shown come from eight instrumental replicates from a single mixture (128 spots), acquired in less than 2.5 minutes.
Further characterization of the inhibitors was achieved by screening simultaneously different concentrations of inhibitor and the substrate in order to obtain the Dixon plot (FIG. 11). […] This Dixon plot required that 24 independent progress curves be determined: duplicate measurements taken on 12 combinations of concentrations of inhibitor (0, 40, 100, 200 nM) and substrate (0.6, 0.8, 1.0 mM). This required the analysis of 3072 spots, carried out in approx. 35 minutes, with simultaneous incubation time of 50 minutes.

T1 sequence (P22303 32-614, species assumed): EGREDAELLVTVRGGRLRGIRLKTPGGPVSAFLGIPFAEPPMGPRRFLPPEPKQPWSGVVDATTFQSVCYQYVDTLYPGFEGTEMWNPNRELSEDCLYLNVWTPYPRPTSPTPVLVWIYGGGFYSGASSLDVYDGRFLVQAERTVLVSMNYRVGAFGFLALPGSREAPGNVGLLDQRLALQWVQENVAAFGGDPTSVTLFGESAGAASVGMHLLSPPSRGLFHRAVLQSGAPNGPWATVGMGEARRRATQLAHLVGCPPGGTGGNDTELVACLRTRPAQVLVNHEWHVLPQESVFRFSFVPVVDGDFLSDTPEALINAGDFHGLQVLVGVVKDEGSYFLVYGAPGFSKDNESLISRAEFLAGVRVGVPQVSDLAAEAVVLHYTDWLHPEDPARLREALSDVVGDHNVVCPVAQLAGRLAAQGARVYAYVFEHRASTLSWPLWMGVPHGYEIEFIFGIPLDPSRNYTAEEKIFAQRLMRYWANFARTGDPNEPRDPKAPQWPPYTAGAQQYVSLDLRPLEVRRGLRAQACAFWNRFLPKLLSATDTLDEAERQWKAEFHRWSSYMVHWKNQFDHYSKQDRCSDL

**Q.** How did the IC50 [1] turn out when COc1ccc2c3c1O[C@H]1C(=O)CC[C@H]4[C@@H](C2)N(C)CC[C@]314 [hydrocodone] was run?
**A.** 116 µM

**Q.** With CN(C)C(=O)Oc1cccc([N+](C)(C)C)c1 [neostigmine] as the molecule, how does the “type of inhibition (intersection of the lines in the Dixon plot)” value [2] read?
**A.** competitive inhibitor

**Q.** For COc1ccc2c3c1O[C@H]1C(=O)CC[C@@]4(O)[C@@H](C2)N(C)CC[C@]314 [oxycodone], which IC50 [1] is on record?
**A.** 0.122 µM
